Usually IC50 stands for the concentration needed to halve the response being measured.

Read-outs that look alike come from different tables or passages of the source. Where only a bound is given, the exact number is not on record here.

The values below come from paper PMC10454409, “Hybrids of Sterically Hindered Phenols and Diaryl Ureas: Synthesis, Switch from Antioxidant Activity to ROS Generation and Induction of Apoptosis” (International Journal of Molecular Sciences, 2023).

The subject of experiment [1] is M-HeLa cells (human cervix epithelioid carcinoma). Nature of the experiment: MTT cytotoxicity test, M-HeLa. It counts as cell-based. The method in brief: (§1)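 Cells seeded at 5 × 10^3 per well and grown at 37 °C to monolayer, then exposed to compounds for 48 h. Viability by MTT (0.5 mg/mL, serum-free medium, 4 h, 37 °C), formazan dissolved in DMSO, OD 540 nm. IC50 estimated from triplicate experiments.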
(Tetrazolium assays rely on reduction of a dye to a coloured formazan, in cell work by metabolically active cells.)

The test system of experiment [2] is MCF-7 cells (human breast adenocarcinoma). Nature of the experiment: MTT cytotoxicity test, MCF-7. It counts as cell-based. The conditions noted are these: Homo sapiens, MCF7, MTT test; 24 h incubation per text, 48 h per method. Put shortly: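 Viable MCF-7 cells quantified by MTT reduction to formazan, dissolved in DMSO and read at 540 nm. Triplicate experiments.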

The test system of experiment [3] is HuTu 80 cells (human duodenal adenocarcinoma). Nature of the experiment: MTT cytotoxicity test, HuTu 80. It is filed as cell-based. Put shortly: as §1
The test system of experiment [4] is HuTu 80 cells. Nature of the experiment: Intracellular ROS level, CellROX Deep Red flow cytometry. It is filed as cell-based, human. The conditions noted are these: 48 h incubation, maximum concentration (IC50).
Experiment [5] concerns SH-SY5Y neuroblastoma cells. Nature of the experiment: Glycolysis stress test (Seahorse XF96e, ECAR). It is filed as cell-based. The conditions noted are these: compound 100 µM. The method, then: We studied the ability of compounds to inhibit aerobic glycolysis using the Agilent Seahorse XF96e Analyzer (Seahorse Bioscience, North Billerica, MA, USA) assay of cellular metabolism on the level of proton production in samples examined on the SH-SY5Y neuroblastoma cell line using glycolysis stress tests. The extracellular acidification rate of the medium was measured in real time, which allowed us to assess the intensity of glycolysis in the cells by recording the main parameters of glycolytic function: basal glycolysis, glycolytic capacity and glycolytic reserve. Glycolytic capacity describes the maximum amount of glycolysis/glucose breakdown the cells can perform acutely, whereas glycolytic reserve is defined as the difference between the basal and maximal glycolytic capacity.
The ability of synthesized compounds to modulate […] glycolysis was studied using the Agilent Seahorse XF96e Analyzer (Seahorse Bioscience, Billerica, MA, USA) on the neuroblastoma SH-SY5Y cell line (40,000 cells per well) as described earlier.
Glycolysis was measured by subtracting the maximum rate of extracellular acidification of the medium before glucose injection from the maximum rate before oligomycin injection. Glycolytic capacity was measured by subtracting the maximum velocity value before glucose injection from the maximum velocity value after oligomycin injection. Glycolytic reserve was defined as the difference between glycolytic capacity and glycolysis.
Figure 6 Effect of synthesized compounds on the glycolytic profile of (a–c) SH-SY5Y tumor cells and (d) calculated parameters of glycolytic function. […] The concentration of compounds was 100 µM, glucose—10 mM, oligomycin—1 µM и 2-fluoro-2-deoxy-D-glucose—25 mM. Data are presented as mean±error of the mean (n = 3). Statistical significance was assessed using one-way ANOVA and Dunnett’s multiple comparison tests, where **** p < 0.0001, *** p < 0.001, ** p < 0.01 and * p < 0.05 vs. control.

The subject of experiment [6] is isolated rat liver mitochondria. Nature of the experiment: Membrane potential of isolated mitochondria (Safranin A). It is filed as biochemical. The conditions noted are these: for Depolarization of mitochondrial membrane: isolated mitochondria. The method, then:
The membrane potential of rat […] mitochondria was measured with a Victor 3 plate analyzer (Perkin Elmer, Hamburg, Germany) using the potential-dependent indicator Safranin A [57]. The mitochondrial preparation was diluted in a buffer containing mannitol (225 mM) (Dia-M, Moscow, Russia), sucrose (75 mM) (Sigma Aldrich, Saint Louis, MO, USA), HEPES (10 mM) (Gibco, Scotland, UK), EGTA (20 µM) (Dia-M, Moscow, Russia) and KH2PO4 (1 mM) at pH = 7.4 at a ratio of 0.5 mg of protein to 1 mL of medium. Safranin A (5 µM) was added to the suspension immediately before the start of the measurement. The organelles were then energized by potassium succinate (5 mM) in the presence of rotenone (1 µM). Mitochondrial pore opening was induced by the addition of CaCl2 (25 µM).
Figure 8 Effect of the synthesized compounds on the membrane potential of rat liver mitochondria. (a) Kinetic lines of transmembrane potential changes at λex = 458 nm and λem = 590 nm. The concentration of the test substances was 100 µM. (b) Calculated parameters of % depolarization relative to control samples. Statistical significance was assessed using one-way ANOVA and Dunnett’s multiple comparison tests, where **** p < 0.0001 vs. control. (c) Concentration dependence of the effects of 11b and 17b on mitochondrial membrane potential. The concentration of the test substances was from 20 to 200 µM. Concentration of ions; Ca^2+—25 µM. Mitochondria were energized by potassium succinate and rotenone. Data are presented as mean±error of the mean (n = 3).

For the molecule `CCOP(=O)(OCC)C(c1cc(C(C)(C)C)c(O)c(C(C)(C)C)c1)c1ccc(NC(=O)Nc2ccc([N+](=O)[O-])cc2)cc1NC(=O)Nc1ccc([N+](=O)[O-])cc1` (stereo not drawn) [17b], the IC50 in experiment [1] (Homo sapiens, M-HeLa, MTT test, 24 h incubation per text, 48 h per method) is 24.3 ± 1.9 µM; in experiment [2], 51 ± 4.2 µM; in experiment [3] (Homo sapiens, HuTu80, read-out: IC50, HuTu 80), less than 15 µM; in experiment [3] (read-out: IC50, HuTu 80), 13.2 µM. Moreover, the “SI, selectivity index relative to Chang liver, M-HeLa” value in experiment [1] (M-HeLa vs Chang liver) is listed as approximately 3. For the same molecule, the “Intracellular ROS level” value in experiment [4] stood at 400.2 ± 5.2%. Further, in experiment [5], the Glycolytic reserve result was “ability to decrease glycolytic reserves”. In addition, the “Glycolysis: rate of extracellular acidification after saturating glucose” value in experiment [5] (glucose 10 mM) was “decrease in the rate of extracellular acidification”. In experiment [5] (oligomycin 1 µM), the Glycolytic capacity result is “decrease in glycolytic capacity”. The “Depolarization of mitochondrial membrane” value is on record as 50% in experiment [6] (compound 100 μM) and approximately 100% in experiment [6] (compound 200 μM). Further, the “Depolarization relative to control (class in Figure 8b)” value in experiment [6] (isolated rat liver mitochondria, compound 100 µM) was “High Depolarization”.
